Laboratory results as given in PMC8511083 (European journal of medicinal chemistry, 2021).

What was measured:
[1] = test system: panel of melanoma and breast cancer cell lines; test: Average growth inhibition in panel of melanoma and breast cancer cell lines; assay type: cell-based; details: Homo sapiens, read-out: Average IC50, average of results obtained in all six cell lines
OVCAR3 and OVCAR8 cells = test: Average growth inhibition in ovarian cancer cell lines; assay type: cell-based; details: Homo sapiens, read-out: Average IC50
survivin [2] = molecular target: T1, survivin (Homo sapiens, UniProt O15392); test: Western blot of IAPs and cleaved-PARP in A375 cells
MDA-MB-435/LCC6MDR1 = test: In vitro antiproliferative; assay type: cell-based; details: Homo sapiens, 72 h, read-out: IC50 MDA-MB-435/LCC6MDRI
MDA-MB-435 = test: In vitro antiproliferative; assay type: cell-based; details: Homo sapiens, MDA-MB-435, 72 h, read-out: IC50 MDA-MB-435
[3] = Liver microsome stability assay, human; details: human microsomes, 88 vs 51 min
A375 xenograft tumors = test: A375 subcutaneous melanoma xenograft model in NSG mice; assay type: in vivo, mouse; details: 20 mg/kg IP, 3 times/week, 15 days, end of experiment, vs vehicle
survivin [4] = molecular target: T1, survivin; test: Western blot of survivin in ovarian cancer cells; details: OVCAR8, SKOV3 and OVCAR3 cells, 24 hr, 2 and 4 μM

T1 sequence (O15392 whole entry): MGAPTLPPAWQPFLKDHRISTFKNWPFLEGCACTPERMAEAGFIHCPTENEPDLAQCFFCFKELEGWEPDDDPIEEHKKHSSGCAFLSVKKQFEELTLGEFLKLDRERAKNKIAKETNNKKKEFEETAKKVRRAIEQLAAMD

Compound `CCc1ccc(-c2cnn(Cc3cc(CN4CCCC4)c(O)c4ncccc34)n2)cc1` [Compound 7e, 5-((4-(4-ethylphenyl)-2H-1,2,3-triazol-2-yl)methyl)-7-(pyrrolidin-1-ylmethyl)quinolin-8-ol] has an IC50 [1] of 2000 nM.

With `Oc1c(CN2CCCCC2)cc(Cn2ncc(-c3ccc(Br)cc3)n2)c2cccnc12` [Compound 12a, 5-((4-(4-bromophenyl)-2H-1,2,3-triazol-2-yl)methyl)-7-(piperidin-1-ylmethyl)quinolin-8-ol] the IC50 [1] was 1400 nM and the IC50 (OVCAR3 and OVCAR8 cells) was 1100 nM.

Work on `Cc1ccc(-c2cc(COCc3ccc(C(C)C)cc3)c3cccnc3c2O)cc1` [Compound 19d, 5-(((4-isopropylbenzyl)oxy)methyl)-7-(p-tolyl)quinolin-8-ol] yielded an IC50 [1] of 1400 nM.

With `Cc1ccc(-c2cnn(Cc3cc(CN4CCCC4)c(O)c4ncccc34)n2)cc1` [Compound 7d, 7-(pyrrolidin-1-ylmethyl)-5-((4-(p-tolyl)-2H-1,2,3-triazol-2-yl)methyl)quinolin-8-ol] the IC50 [1] was 1600 nM.

With `Oc1c(CN2CCNCC2)cc(Cn2ncc(-c3ccc(Br)cc3)n2)c2cccnc12` [Compound 14, 5-((4-(4-bromophenyl)-2H-1,2,3-triazol-2-yl)methyl)-7-(piperazin-1-ylmethyl)quinolin-8-ol] the IC50 [1] was 2600 nM.

Work on `CC(C)c1ccc(COCc2cc(-c3cncc4ccccc34)c(O)c3ncccc23)cc1` [Compound 19b, 5-(((4-isopropylbenzyl)oxy)methyl)-7-(isoquinolin-4-yl)quinolin-8-ol] yielded an IC50 [1] of 900 nM.

For `Oc1c(CN2CCCC2)cc(Cn2ncc(-c3ccc(Br)cc3)n2)c2cccnc12` [Compound 7a, 5-((4-(4-bromophenyl)-2H-1,2,3-triazol-2-yl)methyl)-7-(pyrrolidin-1-ylmethyl)quinolin-8-ol], the IC50 [1] was 2000 nM, the IC50 (OVCAR3 and OVCAR8 cells) was 1300 nM and the “apoptosis induction (cleaved-PARP, western blot)” value (survivin [2]; 24 h) was “effectively induced apoptosis”. The “levels of other IAPs (CIAP1, XIAP, Livin; western blot)” value (survivin [2]; 24 h, 1, 5 and 10 μM) was “minimally affected” and the “survivin protein levels (western blot)” value (survivin [2]; 24 h, 1, 5 and 10 μM) was “selectively suppressed survivin levels”.

`CC(C)c1ccc(COCc2cc(-c3ccnc4ccccc34)c(O)c3ncccc23)cc1` [Compound 19c, 5’-(((4-isopropylbenzyl)oxy)methyl)-[4,7’-biquinolin]-8’-ol] showed an IC50 [1] of 1400 nM.

`Oc1c(CN2CCCC2)cc(Cn2ncc(-c3ccc(C(F)(F)F)cc3)n2)c2cccnc12` [Compound 7b, 7-(pyrrolidin-1-ylmethyl)-5-((4-(4-(trifluoromethyl)phenyl)-2H-1,2,3-triazol-2-yl)methyl)quinolin-8-ol] showed an IC50 [1] of 2400 nM.

Compound `Oc1c(CN2CCCC2)cc(Cn2cnc(-c3ccccc3)c2)c2cccnc12` [Compound 4a, 5-((4-phenyl-1H-imidazol-1-yl)methyl)-7-(pyrrolidin-1-ylmethyl)quinolin-8-ol] has an IC50 [1] of 4200 nM.

`Oc1c(CN2CCOCC2)cc(Cn2ncc(-c3ccc(Br)cc3)n2)c2cccnc12` [Compound 12e, 5-((4-(4-bromophenyl)-2H-1,2,3-triazol-2-yl)methyl)-7-(morpholinomethyl)quinolin-8-ol] gave an IC50 [1] of 1700 nM.

For `N#Cc1ccc(-c2cnn(Cc3cc(CN4CCCC4)c(O)c4ncccc34)n2)cc1` [Compound 7h, 4-(2-((8-hydroxy-7-(pyrrolidin-1-ylmethyl)quinolin-5-yl)methyl)-2H-1,2,3-triazol-4-yl)benzonitrile], the IC50 [1] was 3300 nM.

With `COCC[n+]1c2c(n(Cc3cnccn3)c1C)C(=O)c1ccccc1C2=O` [YM-155] the IC50 (MDA-MB-435/LCC6MDR1) was greater than 1000 nM and the IC50 (MDA-MB-435) was 2.4 ± 0.2 nM.

With `Oc1c(CN2CCCCC2)cc(Cn2ncc(-c3ccc(C(F)(F)F)cc3)n2)c2cccnc12` [Compound 12b, 7-(piperidin-1-ylmethyl)-5-((4-(4-(trifluoromethyl)phenyl)-2H-1,2,3-triazol-2-yl)methyl)quinolin-8-ol] the “improvement of metabolic stability over MX-106” value [3] was 1.7 fold and the “reduction of tumor weight” value (A375 xenograft tumors) was “approximately 32%”.

Work on `CCN(CC)Cc1cc(Cn2ncc(-c3ccc(C(F)(F)F)cc3)n2)c2cccnc2c1O` [Compound 12d, 7-((diethylamino)methyl)-5-((4-(4-(trifluoromethyl)phenyl)-2H-1,2,3-triazol-2-yl)methyl)quinolin-8-ol] yielded an IC50 [1] of 3100 nM.

`COc1ccc(-c2cc(COCc3ccc(C(C)C)cc3)c3cccnc3c2O)cc1` [Compound 19f, 5-(((4-isopropylbenzyl)oxy)methyl)-7-(4-methoxyphenyl)quinolin-8-ol] showed an IC50 [1] of 1400 nM.

`Oc1c(CN2CCCC2)cc(Cn2ncc(-c3ccccc3Br)n2)c2cccnc12` [Compound 7j, 5-((4-(2-bromophenyl)-2H-1,2,3-triazol-2-yl)methyl)-7-(pyrrolidin-1-ylmethyl)quinolin-8-ol] showed an IC50 [1] of 1700 nM.

Compound `CC(C)c1ccc(COCc2cc(-c3ccc(C(F)(F)F)cc3)c(O)c3ncccc23)cc1` [Compound 19g, 5-(((4-isopropylbenzyl)oxy)methyl)-7-(4-(trifluoromethyl)phenyl)quinolin-8-ol] has an IC50 [1] of 2600 nM.

`Oc1c(CN2CCCC2)cc(COC2CCc3ccccc3C2)c2cccnc12` (stereo not shown) [Compound 4d, 7-(pyrrolidin-1-ylmethyl)-5-(((1,2,3,4-tetrahydronaphthalen-2-yl)oxy)methyl)quinolin-8-ol] gave an IC50 [1] of 1900 nM.

For `CC(C)c1ccc(COCc2cc(-c3ccccc3)c(O)c3ncccc23)cc1` [Compound 19a, 5-(((4-isopropylbenzyl)oxy)methyl)-7-phenylquinolin-8-ol], the IC50 (OVCAR3 and OVCAR8 cells) was 2000 nM, the “apoptosis induction (cleaved-PARP, western blot)” value (survivin [2]; 24 h) was “effectively induced apoptosis” and the “survivin protein levels at 10 μM (western blot)” value (survivin [2]; 24 h, 10 μM) was “did not show survivin downregulation”. For the same compound, the “survivin protein levels (western blot)” value (survivin [2]; 24 h, 1, 5 and 10 μM) was “selectively downregulated survivin”.

In the case of `Oc1c(CN2CCCC2)cc(Cn2ncc(-c3cccc(Br)c3)n2)c2cccnc12` [Compound 7k, 5-((4-(3-bromophenyl)-2H-1,2,3-triazol-2-yl)methyl)-7-(pyrrolidin-1-ylmethyl)quinolin-8-ol], the IC50 [1] is reported as 1700 nM, the “survivin protein accumulation (western blot)” value (survivin [4]) is reported as “reduced the accumulation of survivin protein” and the IC50 (OVCAR3 and OVCAR8 cells) is reported as 1100 nM.

Work on `COc1ccc(-c2cnn(Cc3cc(CN4CCCC4)c(O)c4ncccc34)n2)cc1` [Compound 7g, 5-((4-(4-methoxyphenyl)-2H-1,2,3-triazol-2-yl)methyl)-7-(pyrrolidin-1-ylmethyl)quinolin-8-ol] yielded an IC50 [1] of 2000 nM.

Compound `O=[N+]([O-])c1ccc(-c2cnn(Cc3cc(CN4CCCC4)c(O)c4ncccc34)n2)cc1` [Compound 7f, 5-((4-(4-nitrophenyl)-2H-1,2,3-triazol-2-yl)methyl)-7-(pyrrolidin-1-ylmethyl)quinolin-8-ol] has an IC50 [1] of 2400 nM.

In the case of `Oc1c(CN2CCCC2)cc(COC2Cc3ccccc3C2)c2cccnc12` [Compound 4c, 5-(((2,3-dihydro-1H-inden-2-yl)oxy)methyl)-7-(pyrrolidin-1-ylmethyl)quinolin-8-ol], the IC50 [1] is reported as 2700 nM.

Compound `Cc1cccc(-c2cc(COCc3ccc(C(C)C)cc3)c3cccnc3c2O)c1` [Compound 19e, 5-(((4-isopropylbenzyl)oxy)methyl)-7-(m-tolyl)quinolin-8-ol] has an IC50 [1] of 1600 nM.
